Laboratory results from patent publication US8569297B2, “1-benzyl-3-hydroxymethylindazole derivatives and use thereof in the treatment of diseases based on the expression of MCP-1 and CX3CR1” (Aziende Chimiche Riunite Angelini Francesco A.C.R.A.F. …, priority 2008, dated 2013).

Key:
[1] = tested on: MCP-1; assay: Analysis of the gene expression of MCP-1 in a human monocyte line (real-time RT-PCR); format: cell-based; conditions: 150 μM (maximum soluble concentration), 1 hour pre-incubation; MonoMac6 cells stimulated with LPS 100 ng/ml for 4 hours
Procedure: (§1) The capacity of compound 1 to inhibit the expression of MCP-1 by lipopolysaccharide (LPS)-stimulated MonoMac6 cells was evaluated. The cells were placed in 96-well plates at a concentration of 50 000 cells/well. The compound was tested at the maximum soluble concentration given in Table 1 (in the range 30-300 μM) and incubated for 1 hour. The cells were then stimulated with LPS (100 ng/ml) for 4 hours.
(§2) The total RNA was extracted from the cell pellet using the RNeasy mini kit (Qiagen), reverse-transcribed with the TaqMan Reverse transcription reagents synthesis kit (Applied Biosystems) and the cDNA obtained was used for the real-time PCR reaction. The amplification was obtained in 96-well plates using the ABI Prism 7000 sequence detection system (Applied Biosystems), by applying the following temperature profile: 50° C. for 2 minutes, 95° C. for 10 minutes and 45 cycles at 95° C. for 15 seconds and 60° C. for 1 minute. For the amplification, a set of primers and probe specific for human MCP-1 was used (Applied Biosystems, RefSeq NM_002982.3). […] Once the reaction had taken place, the fluorescence data were analysed using the ABI Prism 7000 SDS software, by calculating the threshold cycle (Ct) for each sample and subsequently performing a relative quantification via the ΔΔCt method.
The results obtained, expressed as a percentage of inhibition, are collated in Table 1 below.

[2] = tested on: MCP-1; assay: Measurement of the production of MCP-1 in a human monocyte line (ELISA); format: cell-based; conditions: MONO-MAC-6, 150 μM (maximum soluble concentration), 1 hour pre-incubation, MonoMac6 cells stimulated with LPS 100 ng/ml for 20 hours, supernatant ELISA, read-out: % inhibition of LPS-induced MCP-1 production (produced protein)
Procedure: The capacity of the compounds 1 and 2 to inhibit the expression of the protein MCP-1 by lipopolysaccharide (LPS)-stimulated MonoMac6 cells was evaluated. The cells were placed in 96-well plates at a concentration of 50 000 cells/well. The compounds were tested at the maximum soluble concentration given in Table 2 (in the range 30-300 μM) and incubated for 1 hour. The cells were then stimulated with LPS (100 ng/ml) for 20 hours.
The amount of MCP-1 produced was measured in the supernatants, suitably diluted with buffer, by means of an immunoenzymatic test (ELISA) using a commercial kit (ELISA MCP-1/JE, R&D Systems).
The results obtained, expressed as a percentage of inhibition, are collated in Table 2 below.

[3] = tested on: CX3CR1; assay: Analysis of the gene expression of CX3CR1 in a human monocyte line (real-time RT-PCR); format: cell-based; conditions: 150 μM (maximum soluble concentration), 1 hour pre-incubation; MonoMac6 cells stimulated with LPS 100 ng/ml for 20 hours
Procedure: as §1, with “of CX3CR1” for “of MCP-1”, “Table 3” for “Table 1”, “for 20” for “for 4”
as §2, with “CX3CR1” for “MCP-1”, “NM_001337.3).” for “NM_002982.3).”
The results obtained, expressed as a percentage of inhibition, are collated in Table 3 below.

Compound	% inhibition of LPS-induced expression of MCP-1 (specific mRNA) [1] [%]	inhibition at 150 µM [2] [%]	% inhibition of LPS-induced expression of CX3CR1 (specific mRNA) [3] [%]	melting point
CCNCC(O)c1nn(Cc2ccccc2)c2ccccc12 (stereo not shown) [Compound 2, 1-(1-benzyl-1H-indazol-3-yl)-2-(ethylamino)ethanol]	53	67	85	
NCC(O)c1nn(Cc2ccccc2)c2ccccc12 (stereo not shown) [Compound 1, 2-amino-1-(1-benzyl-1H-indazol-3-yl)ethanol]	64	73	96	126 °C (dec.)
